Laboratory results reported in patent publication US11612643B2, “Col14A1-derived tumor antigen polypeptide and use thereof” (Genoimmune Therapeutics Co., Ltd., priority 2016, dated 2023).

What was measured:
CD8+ T cells [1] = assay: ELISPOTs detection of IFN-gamma secretion by peptide-specific CD8+ T cells; format: cell-based, human; conditions: for Conclusion (immunogenicity): ELISPOTs; for Number of spots in the wild-type peptide group: T cells activated by listed peptide + T2 loaded with wild-type peptide FMVDGSWSI, 20 h
Source text: In this example, a ELISPOTs detection kit (Cat. No.: 3420-4AST-10, MABTECH) was used to verify the activation of an immune response of CD8+ T cells by the peptides of the present invention.
Principle of the ELISPOTs detection method is as follows: CD8+ T cells can specifically recognize the complex of HLA-A0201 and a peptide. The population of T cells recognizing the complex of the peptide and HLA-A0201 is varying, depending on the peptide sequence. Since T2 cells express HLA-A0201, CD8+ T cells can specifically recognize the T2 cells loaded with a peptide. After specific recognition of the complex of HLA-A0201 and the peptide, peptide-specific CD8+ T cells can be activated again to secrete IFN-gamma interferon. The IFN-gamma interferon secreted by the activated CD8+ T cells can be captured by antibodies on the ELISPOTs plate. Finally, the enzyme-conjugated antibody that recognizes IFN-gamma can degrade the substrate through the enzyme conjugated thereto and develop color, eventually producing spots. The number of spots represents the number of cells that are activated to secrete IFN-gamma interferon.
The cultured cells from Example 3 were added, along with T2 cells loaded with the mutant peptide […] of the present invention and the wild-type peptide […], respectively, into ELISPOTs plates, and cultured for 20 h, and then a ELISPOTs detection was performed (see the kit instruction). Finally, the spots produced by the ELISPOTs detection were counted.
The peptide was determined to have immunogenicity when the number of spots of the tested peptide/the number of spots of an unrelated peptide>2; that is, if the number of spots caused by the tested peptide is more than twice than that of an unrelated peptide, the tested peptide is determined to have immunogenicity.

T2 cells = assay: LDH release assay, killing of peptide-loaded T2 target cells by CD8+ T cells; format: cell-based, human; conditions: T2 loaded with wild-type FMVDGSWSI, 4 h
Description: The cells cultured in Example 3 were co-cultured with T2 cells loaded with the mutant peptides of the present invention or the wild-type peptide or without a peptide. A maximum release well, a volume correction well, a medium control well, a spontaneous release well and control wells for example at different effector-to-target ratios (ratios of T cells to T2 cells) were set in this experiment. Three replicate wells were set for each group. After 4 h, 50 μl of the co-culture supernatant was taken out and added to 50 μl of LDH substrate mixture to catalyze the reaction of LDH substrate. Finally, the plates were read at a wavelength of 490 nm, with a reference wavelength of 680 nm, and the killing activity against target cells T2 was calculated based on the control wells.

CD8+ T cells [2] = assay: ELISPOTs detection of IFN-gamma secretion by peptide-specific CD8+ T cells; format: cell-based, human; conditions: ratio of spot numbers; >2 immunogenic
HLA-A0201 = molecular target: T1, HLA-A0201 (Homo sapiens, UniProt P04439, D140Y/D185E/D98H/E176V/E277Q/G131W/G231S/I119V/I121R/I166T/I218V/L300P/L318F/N151K/N90K/P208A/P217A/Q86G/Q94H/R138H/R169H/T345S); assay: Affinity verification of the peptides to T2 cells (flow cytometry, FITC anti-HLA-A0201); format: cell-based; conditions: added peptide 100 μM, FI>1.5 high affinity for HLA-A0201, listed as wild-type peptide
T1 construct: T2 cells (a lymphocyte, tumor cell line, expressing HLA-A0201); host or cells: T2 cells (TAP-deficient T/B lymphocyte hybridoma, HLA-A2 positive)
Description: 10 μg/ml of each peptide as described above was added, and human β2 microglobulin (at a final concentration of 3 μg/ml) was added and cultured overnight in an incubator (37° C., 5% CO2). Two replicate wells were set up for each group.
Cells were collected by centrifugation of the cell culture at 200 g for 5 minutes. The collected cells were washed twice with PBS, and then directly incubated with FITC-conjugated anti-HLA-A0201 monoclonal antibody at 4° C. for 30 minutes. The mean fluorescence intensity (MFI) was then detected and analyzed by flow cytometer (BD FACSJazz™) and its software. The fluorescence index (FI) was calculated by using the following formula: FI=[MFIsample−MFIbackground]/MFIbackground;

[3] = effector-to-target ratio (10:1)

Sequence | Conclusion (immunogenicity) (CD8+ T cells [1]) | Number of spots in the wild-type peptide group (CD8+ T cells [1]) | killing activity against target cells T2 (T2 cells; effector-to-target ratio (1:1)) [%] | killing activity against target cells T2 (T2 cells; [3]) [%] | Fold (tested/wild-type) (CD8+ T cells [2]) | FI (fluorescence index) (HLA-A0201)
FLVDGFWSI | immunogenic | 28 | 2.65 | 5.53 | 11.21 | –
FLVDGFWSL | immunogenic | 30 | 3.13 | 6.33 | 10.26 | –
FLVDGFWSV | immunogenic | 31 | 3.26 | 6.01 | 9.71 | –
FMVDGFWSL | immunogenic | 37 | 3.12 | 4.91 | 8.86 | –
FMVDGFWSV | immunogenic | 41 | 3.37 | 5.63 | 7.87 | –
FMVDGSWSI [wild-type COL14A1 peptide used as comparator] | – | – | – | – | – | greater than 1.5
